Assay results from patent US20260274887A1, “SALT FORM AND POLYCRYSTALLINE FORM OF ALLOPREGNANOLONE DERIVATIVE, PREPARATION METHOD THEREFOR, AND USE THEREOF” (priority 2023, published 2026).
Where two headings read alike, the source gives them in different places.

Legend:
[1] = Hygroscopic weight gain experiment (Chinese Pharmacopoeia 2020 hygroscopicity guideline); assay type: physicochemical; details: for Hygroscopic weight gain: 25° C.±1° C. and 80%±2% RH
Procedure: Table 1 below is the definition and range of hygroscopicity for a drug after equilibration at 25° C.±1° C. and 80%±2% RH in Guidelines for Hygroscopicity Trials for Pharmaceuticals (Chinese Pharmacopoeia, 2020 Edition, Volume IV, page 485).
The strong hygroscopicity of a drug will seriously affect the flowability of the drug and even affect the stability of the drug. Therefore, according to the present application, a hygroscopic weight gain experiment was conducted on different salt forms of compound 1 as per the method described in Guidelines for Hygroscopicity Trials for Pharmaceuticals (Chinese Pharmacopoeia, 2020 Edition, Volume IV).

[2] = Solubility of different salt forms in water (HPLC of supernatant); details: for Solubility at 25° C. / Solubility at 37° C.: purified water, 24 h; for solubility at 24 h: water, thermodynamic from solid
Procedure: The system was stirred in a water bath at 25° C. In addition, the same system was prepared by the same method and stirred at 37° C. After 24 h, the supernatant was taken for HPLC analysis.

[3] = Interconversion between crystalline forms (slurry of two forms, DSC); assay type: physicochemical; details: room temperature, 3 days
Procedure: Samples of two different crystalline forms were mixed and dissolved in a corresponding solvent of 5 mL, and the mixture was stirred at room temperature for 3 days and separated by centrifugation. The resulting solid was dried in vacuum at 40 ° C. The dried product was subjected to a DSC test to determine the composition of the crystalline form.

[4] = Stability of crystalline form I and II (HPLC purity; XRPD and DSC crystalline form); assay type: physicochemical
[5] = DVS profile (moisture sorption) of crystalline forms; assay type: physicochemical
[6] = Stability of crystalline form I and II (HPLC purity; XRPD and DSC crystalline form); assay type: physicochemical; remark: listed apart in the source
Description: Samples were taken on day 0, day 10, and day 30 for XRPD and DSC detections to evaluate the physical stability and for HPLC purity detection to evaluate the chemical stability.

[7] = assay type: physicochemical
[8] = in the human body; cited from earlier work

**Q.** What does the source list for Cc1ccc(S(=O)(=O)O)cc1.[2H]C(C)(C)C(N)C(=O)OC1CCC2(C)C(CCC3C2CCC2(C)C(C(C)=O)CCC32)C1 (stereo not drawn)?
**A.** Hygroscopic weight gain [1]: 0%; Solubility at 25° C. [2]: 810 µg/mL; Solubility at 37° C. [2]: 890 µg/mL

**Q.** With CC(=O)O [Acetate] as the molecule, how does the Hygroscopic weight gain [1] read?
**A.** 0.4%

**Q.** For C1=Cc2cccc(OC[C@H]3CNCCO3)c2C1.O=S(=O)(O)c1ccccc1 [Benzenesulfonate], which Hygroscopic weight gain [1] is on record?
**A.** 0.2%

**Q.** For [2H]C(C)(C)[C@H](N)C(=O)O[C@@H]1CC[C@@]2(C)[C@@H](CC[C@@H]3[C@@H]2CC[C@]2(C)[C@@H](C(C)=O)CC[C@@H]32)C1 [Compound 1, L-valine-3-d, (3α,5α)-3-hydroxy-pregnan-20-one-3-yl ester], which solubility at 24 h ([2]; 25 °C) is on record?
**A.** 10 µg/mL

**Q.** What about the “Solubility at 37° C.” value [2] of the same molecule?
**A.** Not detected

**Q.** For Cl.[2H]C(C)(C)[C@H](N)C(=O)O[C@@H]1CC[C@@]2(C)[C@@H](CC[C@@H]3[C@@H]2CC[C@]2(C)[C@@H](C(C)=O)CC[C@@H]32)C1 [Crystalline form III], which Final crystalline form ([3]; isopropyl acetate 5 ml) is on record?
**A.** crystalline form I

**Q.** Which results are given for Cl.[2H]C(C)(C)[C@H](N)C(=O)O[C@@H]1CC[C@@]2(C)[C@@H](CC[C@@H]3[C@@H]2CC[C@]2(C)[C@@H](C(C)=O)CC[C@@H]32)C1 [Crystalline form II]?
**A.** Purity, High humidity (RH 92.5%) ([4]; day 5): 99.39%; Purity, High temperature (60° C.) ([4]; day 5): 99.28%; Purity, Illumination (4500 ± 500 Lux) ([4]; day 5): 99.57%; Purity, Illumination (4500 ± 500 Lux) ([4]; day 10): 99.68%; Purity, High humidity (RH 92.5%) ([4]; day 30): 99.37%; Purity, High temperature (60° C.) ([4]; day 30): 97.03%; DVS weight gain ([5]; relative humidity 50%): about 4%; Purity, High humidity (RH 92.5%) ([6]; day 0): 99.59%; Purity, High temperature (60° C.) ([6]; day 0): 99.59%; Purity, Illumination (4500 ± 500 Lux) ([6]; day 0): 99.59%; Purity, High humidity (RH 92.5%) ([6]; day 10): 99.65%; Purity, High temperature (60° C.) ([6]; day 10): 98.93%; Purity, Illumination (4500 ± 500 Lux) ([6]; day 30): 99.20%; Final crystalline form ([3]; isopropyl acetate 5 ml): crystalline form I

**Q.** With Cl.[2H]C(C)(C)[C@H](N)C(=O)O[C@@H]1CC[C@@]2(C)[C@@H](CC[C@@H]3[C@@H]2CC[C@]2(C)[C@@H](C(C)=O)CC[C@@H]32)C1 [Crystalline form IV] as the molecule, how does the Final crystalline form ([3]; n-heptane 5 ml) read?
**A.** crystalline form IIL

**Q.** For Cl.[2H]C(C)(C)[C@H](N)C(=O)O[C@@H]1CC[C@@]2(C)[C@@H](CC[C@@H]3[C@@H]2CC[C@]2(C)[C@@H](C(C)=O)CC[C@@H]32)C1 [Crystalline form I], which “Hygroscopicity (summary statement)” value ([1]; summary of the polymorph comparison) is on record?
**A.** non-hygroscopic

**Q.** And the “Purity, High humidity (RH 92.5%)” value ([4]; day 5)?
**A.** 99.72%

**Q.** What about the “Purity, High temperature (60° C.)” value ([4]; day 5) of the same molecule?
**A.** 99.78%

**Q.** And the “Purity, Illumination (4500 ± 500 Lux)” value ([4]; day 5)?
**A.** 99.78%

**Q.** And the “Purity, Illumination (4500 ± 500 Lux)” value ([4]; day 10)?
**A.** 99.82%

**Q.** What about the “Purity, High humidity (RH 92.5%)” value ([4]; day 30) of the same molecule?
**A.** 99.78%

**Q.** What about the “Purity, High temperature (60° C.)” value ([4]; day 30) of the same molecule?
**A.** 99.64%

**Q.** What about the DVS weight gain ([5]; relative humidity 90%) of the same molecule?
**A.** 1.2%

**Q.** What about the “Purity, High humidity (RH 92.5%)” value ([6]; day 0) of the same molecule?
**A.** 99.77%

**Q.** What about the “Purity, High temperature (60° C.)” value ([6]; day 0) of the same molecule?
**A.** 99.77%

**Q.** What about the “Purity, Illumination (4500 ± 500 Lux)” value ([6]; day 0) of the same molecule?
**A.** 99.77%

**Q.** What about the “Purity, High humidity (RH 92.5%)” value ([6]; day 10) of the same molecule?
**A.** 99.82%

**Q.** What about the “Purity, High temperature (60° C.)” value ([6]; day 10) of the same molecule?
**A.** 99.77%

**Q.** What about the “Purity, Illumination (4500 ± 500 Lux)” value ([6]; day 30) of the same molecule?
**A.** 99.65%

**Q.** Which results are given for Cl.[2H]C(C)(C)[C@H](N)C(=O)O[C@@H]1CC[C@@]2(C)[C@@H](CC[C@@H]3[C@@H]2CC[C@]2(C)[C@@H](C(C)=O)CC[C@@H]32)C1 [Hydrochloride]?
**A.** Hygroscopic weight gain [1]: 0.2%; solubility at 24 h ([2]; 25 °C): 22700 µg/mL; solubility at 24 h ([2]; 37 °C): 46400 µg/mL; HPLC purity, High humidity/RH 92.5% ([7]; day 0): 100%; HPLC purity, High temperature/60° C. ([7]; day 0): 100%; HPLC purity, Illumination/4500 ± 500 Lux ([7]; day 0): 100%; HPLC purity, High humidity/RH 92.5% ([7]; day 7): 99.89%; HPLC purity, High temperature/60° C. ([7]; day 7): 99.89%; HPLC purity, Illumination/4500 ± 500 Lux ([7]; day 7): 99.89%; HPLC purity, High humidity/RH 92.5% ([7]; day 14): 99.89%; HPLC purity, High temperature/60° C. ([7]; day 14): 99.88%; HPLC purity, Illumination/4500 ± 500 Lux ([7]; day 14): 99.89%

**Q.** For O=C(O)CC(O)C(=O)O.[2H]C(C)(C)C(N)C(=O)OC1CCC2(C)C(CCC3C2CCC2(C)C(C(C)=O)CCC32)C1.[2H]C(C)(C)C(N)C(=O)OC1CCC2(C)C(CCC3C2CCC2(C)C(C(C)=O)CCC32)C1 [L-Malate], which Hygroscopic weight gain [1] is on record?
**A.** 4.0%

**Q.** And the “Solubility at 25° C.” value [2]?
**A.** 1400 µg/mL

**Q.** What about the “Solubility at 37° C.” value [2] of the same molecule?
**A.** 2110 µg/mL

**Q.** With O=P(O)(O)O.[2H]C(C)(C)C(N)C(=O)OC1CCC2(C)C(CCC3C2CCC2(C)C(C(C)=O)CCC32)C1.[2H]C(C)(C)C(N)C(=O)OC1CCC2(C)C(CCC3C2CCC2(C)C(C(C)=O)CCC32)C1 (stereo not drawn) [Phosphate] as the molecule, how does the Hygroscopic weight gain [1] read?
**A.** 4.9%

**Q.** For CC(=O)[C@H]1CC[C@H]2[C@@H]3CC[C@H]4C[C@H](O)CC[C@]4(C)[C@H]3CC[C@]12C [allopregnanolone, 3α-OH-5α-pregnan-20-one], which plasma half-life [8] is on record?
**A.** about 45 minutes

**Q.** Which results are given for Maleate?
**A.** Hygroscopic weight gain [1]: 0%; Solubility at 25° C. [2]: 730 µg/mL; Solubility at 37° C. [2]: 1120 µg/mL
